In patent US6455760B1, “Expression of flavin-containing monoxygenases in plants” (The Salk Institute of Biological Studies, priority 2000, dated 2002):
“Also recorded” adds a separate entry of the source.

Columns and labels:
[1] = test system: Arabidopsis WT and yucca mutants; assay type: in vivo, Arabidopsis thaliana; conditions: for sensitivity of yucca mutants to tryptophan analogs: yucca mutants compared with normal toxicity to plants
Description: Enhanced expression of the YUCCA gene overproduces auxin. […] Massive root growth was observed when yucca explants grew in Murashige and Skoog (MS) media. Callus was induced by adding cytokinin, and young yucca plants that are regenerated in MS media containing cytokinin. A GUS reporter gene controlled by an auxin responsive element was expressed at much higher level in yucca. […] In addition, YUCCA appears to be involved in tryptophan-dependent auxin synthesis. […] In the presence of 100 μM 5-methyl tryptophan, WT plant material died while yucca survived.

yucca mutant = assay type: in vivo, Arabidopsis thaliana
[2] = test system: Arabidopsis WT and yucca mutants; assay: Auxin transport block by NPA in growth medium, club root development; assay type: in vivo, Arabidopsis thaliana
Text: It was also discovered that auxin transport in yucca was blocked by application of transport inhibitor naphthylthalamic acid (NPA), resulting in yucca mutants having a giant root, called a “club root” due to its thick, short appearance. This club root was substantially thicker than the regular yucca root, which is already thicker than the WT root. […] The club root produced by blocking auxin transport in yucca mutants may provide an important tool for studying root growth and development.

[3] = target: T1, recombinant YUCCA gene product (SEQ ID NO. 2) (Arabidopsis thaliana, UniProt Q9SZY8); assay: FMO activity assay of recombinant YUCCA gene product with tryptamine (TLC, mass spectroscopy); assay type: biochemical; conditions: 2 mM tryptamine, 1 mM NADP+, glucose-6-phosphate, glucose-6-phosphate dehydrogenase, 37° C.
T1 construct: 2, was recovered from the E. coli overexpression system; made in house; host or cells: E. coli (vector pMalC2)
T1 sequence (Q9SZY8 1-414): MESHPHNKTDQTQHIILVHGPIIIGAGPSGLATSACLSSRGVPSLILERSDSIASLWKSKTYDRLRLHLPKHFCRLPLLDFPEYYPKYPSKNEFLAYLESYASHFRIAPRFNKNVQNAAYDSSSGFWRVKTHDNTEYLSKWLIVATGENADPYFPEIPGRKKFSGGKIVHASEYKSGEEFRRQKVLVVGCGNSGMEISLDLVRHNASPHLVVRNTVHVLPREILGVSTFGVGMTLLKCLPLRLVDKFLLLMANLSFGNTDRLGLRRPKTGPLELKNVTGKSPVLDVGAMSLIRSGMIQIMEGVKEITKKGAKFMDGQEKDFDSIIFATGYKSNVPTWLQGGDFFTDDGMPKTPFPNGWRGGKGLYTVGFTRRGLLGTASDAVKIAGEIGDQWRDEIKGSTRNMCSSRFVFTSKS
Text: Enzymatic activity of the YUCCA gene product. In one experiment, the YUCCA gene was transformed into an E. coli overexpression vector and the recombinant YUCCA gene product, a polypeptide having the amino acid sequence of SEQ ID NO. 2, was recovered from the E. coli overexpression system. […] Thus, the amino acid sequence of SEQ ID NO: 2 can be used to metabolize tryptamine, whether endogenous or exogenous, as well as to generate N-hydroxyl tryptamine.
Effect of YUCCA overexpression in E. coli on detectable FMO activity. To test the enzymatic activity of the YUCCA gene product, YUCCA (SEQ ID NO. 1) was transformed into an E. coli overexpression vector pMalC2 and the recombinant YUCCA gene product was recovered, using the method of Brunelle et al., (Drug Metab Dispos (1997) 25:1001). For activity assays, the recombinant YUCCA gene product was incubated with 2 mM tryptamine, 1 mM NADP^+, 1 mM glucose-6-phosphate, and glucose-6-phosphate dehydrogenase at 37° C. Reactions were stopped by adding an equal volume of methanol. Substrate and products were separated by thin-layer-chromatography (TLC) with CH2CL2/methanol/TEA (75:20:5). The product was eluted from TLC plates and mass spectroscopy was performed to determine the molecular mass of the product.

SMILES: N[C@@H](Cc1c[nH]c2ccc(F)cc12)C(=O)O [5-fluoro-tryptophan]
- sensitivity of yucca mutants to tryptophan analogs [1]: less sensitive

SMILES: Cc1ccc2[nH]cc(C[C@H](N)C(=O)O)c2c1 [5-methyl tryptophan]
- survival of WT plant material ([1]; WT, in the presence of 100 μM): died
- survival of yucca ([1]; yucca mutant, in the presence of 100 μM): survived
- sensitivity of yucca mutants to tryptophan analogs [1]: less sensitive

SMILES: NC1(C(=O)O)CC1 [ACC, 1-aminocyclopropane-1-carboxylate]
- effect on yucca cotyledon (yucca mutant; 5 μM): did not change the appearance of the yucca cotyledon
- effect on yucca hypocotyl (yucca mutant; 5 μM): suppressed the elongated yucca hypocotyl

SMILES: C=C [Ethylene]
- effect on the yucca mutant (yucca mutant; ethylene treatment): little effect

SMILES: O=C(O)c1ccccc1C(=O)Nc1cccc2ccccc12 [NPA, naphthylthalamic acid]
- club root development in wild type ([2]; Wild type (WT) Arabidopsis): did not develop a club root
- club root development in yucca mutants ([2]; 50 μM in the growth medium): multiple club roots
- club root development in yucca mutants ([2]; 100 μM in the growth medium): a single club root

SMILES: NCCc1c[nH]c2ccccc12 [tryptamine]
- substrate conversion by recombinant YUCCA gene product [3]: able to convert tryptamine to N-hydroxyl tryptamine; also recorded: use tryptamine as a substrate to generate N-hydroxyl tryptamine
